Experimental data reported in ChEMBL document CHEMBL4350981, “Salinomycin and its derivatives - A new class of multiple-targeted "magic bullets"” (Eur J Med Chem, 2019).
pEC50: −log10 of the molar value. Converted amounts (≈) assume the structure as drawn.

How the values were obtained:
Staphylococcus aureus [1] = assay: Antibacterial activity against methicillin-resistant Staphylococcus aureus; assay type: functional
Staphylococcus aureus [2] = assay: Antibacterial activity against methicillin-sensitive Staphylococcus aureus; assay type: functional
Trypanosoma brucei = assay: Trypanocidal activity against bloodstream forms of Trypanosoma brucei […] incubated for 24 hrs followed by compound wash out after 72 hrs; assay type: functional
Bacillus anthracis = assay: Antibacterial activity against Bacillus anthracis; assay type: functional
[3] = system: Staphylococcus epidermidis; assay: Antibacterial activity against methicillin-resistant Staphylococcus epidermidis; assay type: functional
Staphylococcus aureus [4] = assay: Antibacterial activity against Staphylococcus aureus; assay type: functional
Micrococcus luteus = assay: Antibacterial activity against Sarcina lutea; assay type: functional
Mycolicibacterium phlei [5] = assay: Antibacterial activity against Mycobacterium phlei; assay type: functional
Bacillus subtilis = assay: Antibacterial activity against Bacillus subtilis; assay type: functional
Staphylococcus aureus [6] = assay: Antibacterial activity against Staphylococcus aureus FDA 209P by agar diffusion method; assay type: functional
Influenza A virus H3N2 = assay: Antiviral activity against Influenza A virus (A/Hong Kong/7/1987(H3N2)) infected in MDCK cells after 3 days by MTT assay; assay type: functional, organism-based; conditions: 72 h
[7] = system: Human immunodeficiency virus 1; assay: Antiviral activity against HIV1 infected in U937 cells; assay type: functional, organism-based; conditions: Human immunodeficiency virus 1, U-937
Xanthomonas oryzae = assay: […] activity against Xanthomonas oryzae by agar diffusion method; assay type: functional
[8] = system: Mycobacteroides abscessus; assay: Antimycobacterial activity against Mycobacterium abscessus ATCC 19977; assay type: functional
Mycobacterium avium = assay: Antimycobacterial activity against Mycobacterium avium IFO 315 by agar diffusion method; assay type: functional
[9] = system: Human immunodeficiency virus 1; assay: Antiviral activity against HIV1; assay type: functional, organism-based
Pyricularia oryzae = assay: […] activity against Pyricularia oryzae by agar diffusion method; assay type: functional
Alternaria kikuchiana [10] = assay: Antimicrobial activity against Alternaria kikuchiana NIAS by agar diffusion method; assay type: functional
Alternaria kikuchiana [11] = assay: Antimicrobial activity against Alternaria kikuchiana A-14 by agar diffusion method; assay type: functional
Mycolicibacterium phlei [12] = assay: Antimycobacterial activity against Mycobacterium phlei IPCR by agar diffusion method; assay type: functional

`CC[C@@H](C(=O)[C@@H](C)[C@@H](O)[C@H](C)[C@@H]1O[C@@H]([C@@H](CC)C(=O)Nc2ccccc2)CC[C@@H]1C)[C@H]1O[C@]2(C=C[C@@H](O)[C@]3(CC[C@@](C)([C@H]4CC[C@](O)(CC)[C@H](C)O4)O3)O2)[C@H](C)C[C@@H]1C` was tested, and the MIC (Staphylococcus aureus [1]) was 4 µg/mL (≈ 4.84 µM) and the MIC (Staphylococcus aureus [2]) was 2 µg/mL (≈ 2.42 µM).

Work on `CCCCNC(=O)[C@H](CC)[C@H]1CC[C@H](C)[C@H]([C@@H](C)[C@H](O)[C@H](C)C(=O)[C@H](CC)[C@H]2O[C@]3(C=C[C@@H](O)[C@]4(CC[C@@](C)([C@H]5CC[C@](O)(CC)[C@H](C)O5)O4)O3)[C@H](C)C[C@@H]2C)O1` yielded a GI50 (Trypanosoma brucei) of 0.04 µM.

In the case of `CC[C@@H](C(=O)[C@@H](C)[C@@H](O)[C@H](C)[C@@H]1O[C@@H]([C@@H](CC)C(=O)On2nnc3ccccc32)CC[C@@H]1C)[C@H]1O[C@]2(C=C[C@@H](O)[C@]3(CC[C@@](C)([C@H]4CC[C@](O)(CC)[C@H](C)O4)O3)O2)[C@H](C)C[C@@H]1C`, the MIC (Staphylococcus aureus [2]) was 1 to 2 µg/mL (≈ 1.15 to 2.3 µM).

Molecule `CC[C@@H](C(=O)[C@@H](C)[C@@H](O)[C@H](C)[C@@H]1O[C@@H]([C@@H](CC)C(=O)N(CC)CC)CC[C@@H]1C)[C@H]1O[C@]2(C=C[C@@H](O)[C@]3(CC[C@@](C)([C@H]4CC[C@](O)(CC)[C@H](C)O4)O3)O2)[C@H](C)C[C@@H]1C` has an MIC (Bacillus anthracis) of 1 µg/mL (≈ 1.24 µM) and an MIC [3] of 4 to 8 µg/mL (≈ 4.96 to 9.92 µM).

Molecule `CCCN(CCC)C(=O)[C@H](CC)[C@H]1CC[C@H](C)[C@H]([C@@H](C)[C@H](O)[C@H](C)C(=O)[C@H](CC)[C@H]2O[C@]3(C=C[C@@H](O)[C@]4(CC[C@@](C)([C@H]5CC[C@](O)(CC)[C@H](C)O5)O4)O3)[C@H](C)C[C@@H]2C)O1` has an MIC (Bacillus anthracis) of 4 µg/mL (≈ 4.8 µM) and an MIC [3] of 4 to 8 µg/mL (≈ 4.8 to 9.59 µM).

`CC[C@@H](C(=O)[C@@H](C)[C@@H](O)[C@H](C)[C@@H]1O[C@@H]([C@@H](CC)C(=O)OC[C@H]2O[C@@H](n3cc(F)c(=O)[nH]c3=O)C[C@@H]2O)CC[C@@H]1C)[C@H]1O[C@]2(C=C[C@@H](O)[C@]3(CC[C@@](C)([C@H]4CC[C@](O)(CC)[C@H](C)O4)O3)O2)[C@H](C)C[C@@H]1C` was tested, and the MIC (Staphylococcus aureus [1]) was 8.17 to 32.7 µg/mL (≈ 8.34 to 33.4 µM) and the MIC [3] was 8.17 to 32.7 µg/mL (≈ 8.34 to 33.4 µM).

With `CC[C@@H](C(=O)[C@@H](C)[C@@H](O)[C@H](C)[C@@H]1O[C@@H]([C@@H](CC)C(=O)OCC(F)(F)F)CC[C@@H]1C)[C@H]1O[C@]2(C=C[C@@H](O)[C@]3(CC[C@@](C)([C@H]4CC[C@](O)(CC)[C@H](C)O4)O3)O2)[C@H](C)C[C@@H]1C` the MIC (Staphylococcus aureus [1]) was 0.5 to 1 µg/mL (≈ 0.6 to 1.2 µM), the GI50 (Trypanosoma brucei) was 0.057 µM and the MIC [3] was 2 to 4 µg/mL (≈ 2.4 to 4.8 µM).

Work on `CCCCC(=O)O[C@@H]1C=C[C@]2(O[C@H]([C@@H](CC)C(=O)[C@@H](C)[C@@H](O)[C@H](C)[C@@H]3O[C@@H]([C@@H](CC)C(=O)O)CC[C@@H]3C)[C@@H](C)C[C@H]2C)O[C@@]12CC[C@@](C)([C@H]1CC[C@](O)(CC)[C@H](C)O1)O2` yielded an MIC (Staphylococcus aureus [4]) of 0.78 µg/mL (≈ 0.934 µM), an MIC (Micrococcus luteus) of 1.56 µg/mL (≈ 1.87 µM) and an MIC (Mycolicibacterium phlei [5]) of 3.12 µg/mL (≈ 3.74 µM). It also gave an MIC (Bacillus subtilis) of 1.56 µg/mL (≈ 1.87 µM).

`CC[C@@H](C(=O)[C@@H](C)[C@@H](O)[C@H](C)[C@@H]1O[C@@H]([C@@H](CC)C(=O)O)CC[C@@H]1C)[C@H]1O[C@]2(C=C[C@@H](OC(C)=O)[C@]3(CC[C@@](C)([C@H]4CC[C@](O)(CC)[C@H](C)O4)O3)O2)[C@H](C)C[C@@H]1C` gave an MIC (Staphylococcus aureus [4]) of 0.78 µg/mL (≈ 0.984 µM), an MIC (Micrococcus luteus) of 1.56 µg/mL (≈ 1.97 µM) and an MIC (Mycolicibacterium phlei [5]) of 6.25 µg/mL (≈ 7.88 µM). For the same molecule, the MIC (Bacillus subtilis) was 1.56 µg/mL (≈ 1.97 µM).

`CCC(=O)O[C@@H]1C=C[C@]2(O[C@H]([C@@H](CC)C(=O)[C@@H](C)[C@@H](O)[C@H](C)[C@@H]3O[C@@H]([C@@H](CC)C(=O)O)CC[C@@H]3C)[C@@H](C)C[C@H]2C)O[C@@]12CC[C@@](C)([C@H]1CC[C@](O)(CC)[C@H](C)O1)O2` showed an MIC (Staphylococcus aureus [4]) of 0.78 µg/mL (≈ 0.966 µM), an MIC (Micrococcus luteus) of 0.78 µg/mL (≈ 0.966 µM) and an MIC (Mycolicibacterium phlei [5]) of 1.56 µg/mL (≈ 1.93 µM). For the same molecule, the MIC (Bacillus subtilis) was 0.78 µg/mL (≈ 0.966 µM).

Molecule `CCCC(=O)O[C@@H]1C=C[C@]2(O[C@H]([C@@H](CC)C(=O)[C@@H](C)[C@@H](O)[C@H](C)[C@@H]3O[C@@H]([C@@H](CC)C(=O)O)CC[C@@H]3C)[C@@H](C)C[C@H]2C)O[C@@]12CC[C@@](C)([C@H]1CC[C@](O)(CC)[C@H](C)O1)O2` has an MIC (Staphylococcus aureus [4]) of 0.78 µg/mL (≈ 0.95 µM), an MIC (Micrococcus luteus) of 0.78 µg/mL (≈ 0.95 µM) and an MIC (Mycolicibacterium phlei [5]) of 1.56 µg/mL (≈ 1.9 µM). The MIC (Bacillus subtilis) was 0.78 µg/mL (≈ 0.95 µM).

`CC[C@@H](C(=O)[C@@H](C)[C@@H](O)[C@H](C)[C@@H]1O[C@@H]([C@@H](CC)C(=O)O)CC[C@@H]1C)[C@H]1O[C@]2(C=C[C@@H](OC=O)[C@]3(CC[C@@](C)([C@H]4CC[C@](O)(CC)[C@H](C)O4)O3)O2)[C@H](C)C[C@@H]1C` was tested, and the MIC (Staphylococcus aureus [4]) was 1.56 µg/mL (≈ 2 µM), the MIC (Micrococcus luteus) was 3.12 µg/mL (≈ 4.01 µM) and the MIC (Mycolicibacterium phlei [5]) was 12.5 µg/mL (≈ 16 µM). The MIC (Bacillus subtilis) was 3.12 µg/mL (≈ 4.01 µM).

With `CC[C@@H](C(=O)[C@@H](C)[C@@H](O)[C@H](C)[C@@H]1O[C@@H]([C@@H](CC)C(=O)OCc2cc([N+](=O)[O-])cc([N+](=O)[O-])c2)CC[C@@H]1C)[C@H]1O[C@]2(C=C[C@@H](O)[C@]3(CC[C@@](C)([C@H]4CC[C@](O)(CC)[C@H](C)O4)O3)O2)[C@H](C)C[C@@H]1C` the MIC (Staphylococcus aureus [1]) was 8 to 16 µg/mL (≈ 8.59 to 17.2 µM) and the MIC [3] was 4 to 8 µg/mL (≈ 4.3 to 8.59 µM).

`CC[C@@H](C(=O)[C@@H](C)[C@@H](O)[C@H](C)[C@@H]1O[C@@H]([C@@H](CC)C(=O)NCc2ccc(F)cc2)CC[C@@H]1C)[C@H]1O[C@]2(C=C[C@@H](O)[C@]3(CC[C@@](C)([C@H]4CC[C@](O)(CC)[C@H](C)O4)O3)O2)[C@H](C)C[C@@H]1C` was tested, and the MIC (Staphylococcus aureus [1]) was 16 to 64 µg/mL (≈ 18.6 to 74.6 µM) and the MIC [3] was 16 to 128 µg/mL (≈ 18.6 to 149 µM).

In the case of `O=C(N[C@H](CO)[C@H](O)c1ccc([N+](=O)[O-])cc1)C(Cl)Cl` [CHLORAMPHENICOL], the MIC (Staphylococcus aureus [6]) was 3.12 µg/mL (≈ 9.66 µM).

With `CC[C@H]1OC(=O)[C@H](C)[C@@H](O[C@H]2C[C@@](C)(OC)[C@@H](O)[C@H](C)O2)[C@H](C)[C@@H](O[C@@H]2O[C@H](C)C[C@H](N(C)C)[C@H]2O)[C@](C)(O)C[C@@H](C)C(=O)[C@H](C)[C@@H](O)[C@]1(C)O` [ERYTHROMYCIN] the MIC (Staphylococcus aureus [6]) was 3.12 µg/mL (≈ 4.25 µM).

`CC[C@@H](C(=O)[C@@H](C)[C@@H](O)[C@H](C)[C@@H]1O[C@@H]([C@@H](CC)C(=O)O)CC[C@@H]1C)[C@H]1O[C@]2(C=C[C@@H](O)[C@]3(CC[C@@](C)([C@H]4CC[C@](O)(CC)[C@H](C)O4)O3)O2)[C@H](C)C[C@@H]1C` [SALINOMYCIN] was tested, and the MIC (Staphylococcus aureus [1]) was 1 to 16 µg/mL (≈ 1.33 to 21.3 µM), the pEC50 (Influenza A virus H3N2) was 5.37 to 6.40 and the MIC (Staphylococcus aureus [4]) was 1.56 µg/mL (≈ 2.08 µM). For the same molecule, the EC50 [7] was 0.09 µg/mL (≈ 0.12 µM), the MIC (Xanthomonas oryzae) was 50 µg/mL (≈ 66.6 µM) and the MIC [8] was greater than 20 µg/mL. The MIC (Mycobacterium avium) was 12.5 µg/mL (≈ 16.6 µM), the EC50 [9] was 0.4 µg/mL (≈ 0.533 µM) and the MIC (Staphylococcus aureus [2]) was 1 to 2 µg/mL (≈ 1.33 to 2.66 µM). For the same molecule, the MIC (Pyricularia oryzae) was 25 µg/mL (≈ 33.3 µM), the GI50 (Trypanosoma brucei) was 0.18 µM and the MIC (Micrococcus luteus) was 3.12 µg/mL (≈ 4.15 µM). It also gave an MIC (Bacillus anthracis) of 1 µg/mL (≈ 1.33 µM), an MIC (Mycolicibacterium phlei [5]) of 12.5 µg/mL (≈ 16.6 µM) and an MIC (Alternaria kikuchiana [10]) of 50 µg/mL (≈ 66.6 µM). For the same molecule, the MIC (Bacillus subtilis) was 3.12 µg/mL (≈ 4.15 µM), the MIC [3] was 1 to 16 µg/mL (≈ 1.33 to 21.3 µM) and the MIC (Alternaria kikuchiana [11]) was 50 µg/mL (≈ 66.6 µM). It also gave an MIC (Mycolicibacterium phlei [12]) of 12.5 µg/mL (≈ 16.6 µM).

For `CN[C@@H]1[C@H](O[C@H]2[C@H](O[C@H]3[C@H](O)[C@@H](O)[C@H](N=C(N)N)[C@@H](O)[C@@H]3N=C(N)N)O[C@@H](C)[C@]2(O)C=O)O[C@@H](CO)[C@H](O)[C@H]1O` [STREPTOMYCIN], the MIC (Staphylococcus aureus [6]) was 3.12 µg/mL (≈ 5.36 µM).

Work on `CN(C)[C@@H]1C(O)=C(C(N)=O)C(=O)[C@@]2(O)C(O)=C3C(=O)c4c(O)cccc4[C@@](C)(O)[C@H]3C[C@@H]12` [TETRACYCLINE] yielded an MIC (Staphylococcus aureus [6]) of 3.12 µg/mL (≈ 7.02 µM).
